Results on 1 substance are retold here after publication PMC12767106, “In Situ Assembly of Transformable Monopeptide on Activated Neutrophils Attenuates NETs‐Induced Hepatocellular Carcinoma Metastasis by Disrupting NE Nuclear Translocation” (Advanced Science, 2025).

The target of one data set is T1, NE protein (Homo sapiens, UniProt P08246).
T1 construct: purchased AkrivisBio MA-0156
T1 sequence (P08246 30-267): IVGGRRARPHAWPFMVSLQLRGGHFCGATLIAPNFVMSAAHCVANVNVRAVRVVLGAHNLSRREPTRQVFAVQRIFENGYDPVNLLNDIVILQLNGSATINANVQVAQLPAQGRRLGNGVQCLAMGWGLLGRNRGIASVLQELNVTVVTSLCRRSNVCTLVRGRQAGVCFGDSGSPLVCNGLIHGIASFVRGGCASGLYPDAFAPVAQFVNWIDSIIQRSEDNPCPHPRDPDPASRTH
Nature of the data set: Transformation kinetics by PpIX fluorescence after addition of NE protein. The note with it: 24 h incubation, NE protein/peptide ligand about 1/1000, emission about 635 nm. It is filed as physicochemical. On the procedure:
Submitted to Advanced Science temperature. Following the incubation, 10 µL of the solution was added to a copper mesh at 0 and 24 h. Filter paper was used to remove any extra droplets after an overnight stay. The samples were then stained for five minutes with uranyl acetate and then rinsed for one minute with water (10 µL). Finally, dried samples were observed by TEM (Talos 120C, Thermo Fisher Scientific, USA). DLS (Zetasizer Nano ZS, UK) was used to assess the solution for hydrodynamic size and zeta potential at 0 and 24 h following the incubation. Then, the nanofiber structure at 0 h and 24 h after incubation of FTP-NPs was examined with Circular Dichroism (CD) Spectra (Chirascan, UM, Britain). In addition, the variation of fluorescence emission spectra of PpIX by […]
transformation of FTP-NPs.
Pyrene molecules were employed as an indicator to determine the critical aggregation concentration (CAC) of nanoparticles by comparing the fluorescence of their third and first emissive peaks. […] The fluorescence spectra of pyrene (excitation, 335 nm) in different NPs dilutions were recorded. The fluorescence intensity ratio (I3/I1) of the third and first emissive peaks was measured for CAC calculation. […]

For a further data set, the system named is activated neutrophils. Nature of the data set: CCK-8 cytotoxicity. It counts as cell-based, mouse. The note with it: CCK-8, 24 h, different dosages. On the procedure:
The supernatant was discarded, and the red blood cells were lysed with RBC lysate. The neutrophils were then washed with PBS again, and the supernatant was discarded. The cells were resuspended in culture medium and used for further experiments. […]
Briefly, FTP-NPs were prepared by self-assembly of peptidic nanomaterials and adjusted to various concentrations (0, 50, 100, 200, 400, 800, 1000 μg/mL). […]
10 minutes to remove unbound particles, and the supernatant was collected. […]
In vitro cytotoxicity assay
The CCK-8 assay was used to assess the cell viability of Hepa1-6/luc, resting neutrophils, and activated neutrophils. Following the seeding of 1*10^4 cells per well on a 96-well plate, the cells were subjected to different dosages of FTP-NPs and NFTP-NPs (medium: DMSO = 99:1 v/v). After 24 hours, the cells were incubated for two hours with 10 µL of CCK-8 solution. Finally, a microplate reader (Tecan Infinite M200, Switzerland) was used to measure cell viability based on the absorbance values.
Targeting the capability of NEBP
To evaluate the targeting capability of NE-binding peptide (NEBP), the harvested resting neutrophils and […]

A further data set has as its system C166 endothelial cells. In words: Matrigel tube formation assay. It is filed as cell-based, mouse. The note with it: 6 h, versus Control and NFTP-NPs groups. On the procedure:
(§1) Matrigel tube formation assay
Murine C166 endothelial cells (3×10^4cells/well) were placed on 96-well plates coated with Matrigel (356231, Corning, New York, USA) and incubated with various treatments. After incubation for six h, capillary-like structures were observed and counted under a microscope (Axiovert 200, Zeiss, Germany). All the experiments […]
(§2) In vitro permeability assays and trans-endothelial invasion assays
For in vitro permeability assays, C166 cells were treated with Resting neutrophils, Control, NFTP-NPs, FTP-NPs, and NEi groups for 48 h to form an endothelial monolayer, and then Evans Blue (PHYGENE, China) was added to the upper layer of the transwell filters (0.4 μm, Corning). […]
(§3) All the experiments were performed thrice. […]

The test system of the next data set is Hepa1-6 cells. In words: Trans-endothelial invasion assay. It is filed as cell-based, mouse. Particulars: 48 h, versus Control group. How it is done:
Cell migration and invasion assay […]
as §1
Murine C166 endothelial cells (3×10^4cells/well) were placed on 96-well plates coated with Matrigel (356231, Corning, New York, USA) and incubated with various treatments. […]
as §2
For in vitro permeability assays, C166 cells were treated with Resting neutrophils, Control, NFTP-NPs, FTP-NPs, and NEi groups for 48 h to form an endothelial monolayer, and then Evans Blue (PHYGENE, China) was added to the upper layer of the transwell filters (0.4 μm, Corning). After 30 min, the medium in the lower layer of the chamber was collected to measure the absorbance at 620 nm (Tecan Infinite M200, Switzerland).
For trans-endothelial invasion assays, […] Hepa1-6/luc cells were seeded into transwell filters (8 μm, Corning) with endothelial cell monolayers pretreated with resting neutrophils, Control, NFTP-NPs, FTP-NPs, and NEi groups. After incubation for 48 h, the transmembrane cells were washed, fixed with 4% paraformaldehyde, stained with crystal violet, and observed under a microscope (Axiovert 200, Zeiss, Germany).
as §3

In the case of PpIX-GFFVLK-EAIPMSIPPEVK [FTP-NPs], the “fluorescence intensity of PpIX after addition of NE protein” value at NE protein turned out to be 78.3%. Further, the survival rate entry in the data set on activated neutrophils was “over 95%”. Besides, the “number of tubular structures formed” value in the data set on C166 endothelial cells is on record as “significantly lower”. In the data set with Hepa1-6 cells, the “number of Hepa1-6 cells passing through the endothelial monolayer” value is “significantly lower”.
